In this assay the test system is Mycoplasma hyorhinis ATCC 17981. The experiment in a line: Mycoplasma inhibitory activity, broth dilution assay (MIC). The format is cell-based. Particulars: ATCC17981, 168 h, PPLO liquid medium, 7 days, 37° C., 5% CO2, lowest concentration at which bacteria did not grow, read-out: MIC (minimum inhibitory concentration). As for the experimental part: For compounds 1 to 3, the inhibitory activity against Mycoplasma hyorhinis was evaluated using a broth dilution assay. Briefly, an experimental strain Mycoplasma hyorhinis ATCC 17981 was cultured in a PPLO liquid medium at 37° C. in a 5% CO2 incubator. […] 100 μL of the culture medium, which made with the strain suspension at approximately 2×10^4 CFU/mL, was added to each well of a 96-well plate. The plates were incubated for 7 days in a 37° C., 5% CO2 incubator. As the bacteria grew, the medium turned yellow. […] BioMycoX® (CellSafe, Korea) was used as a positive control.

Values after ≈ are worked out from the molar mass of the structure shown.

3 compounds from US20240317800A1, “NOVEL COMPOUNDS AND ANTIBACTERIAL COMPOSITION COMPRISING THE SAME” (KOREA INSTITUTE OF OCEAN SCIENCE & TECHNOLOGY, priority 2022, published 2024) can be followed below.

For `CCCCCCCCCCC[C@@H]1CC(=O)N[C@@H](CCC(=O)O)C(=O)N[C@@H](CC(C)C)C(=O)N[C@H](CC(C)C)C(=O)N[C@@H](CC(C)C)C(=O)O1` [Compound 1, Bacilotetrin C], the MIC was 31 µg/mL (≈ 44.6 µM).

Regarding `CCC(C)CCCCCCCC[C@@H]1CC(=O)N[C@@H](CCC(=O)O)C(=O)N[C@@H](CC(C)C)C(=O)N[C@H](CC(C)C)C(=O)N[C@@H](CC(C)C)C(=O)O1` (stereo partly drawn) [Compound 2, Bacilotetrin D], the MIC turned out to be 31 µg/mL (≈ 43.7 µM).

For the compound `CC(C)CCCCCCCCC[C@@H]1CC(=O)N[C@@H](CCC(=O)O)C(=O)N[C@@H](CC(C)C)C(=O)N[C@H](CC(C)C)C(=O)N[C@@H](CC(C)C)C(=O)O1` [Compound 3, Bacilotetrin E], the MIC came to 31 µg/mL (≈ 43.7 µM).
